This is an account of results in patent US20250332113A1, “ADHESIVE PARTICLES FOR ACTIVE DELIVERY” (THE TRUSTEES OF THE UNIVERSITY OF PENNSYLVANIA, priority 2022, published 2025).

The nature of this data set: Release profile of fluorescent molecules from PEG-PLGA double-emulsion hairy microparticles. It counts as physicochemical. The conditions noted are these: 0.1 M PBS buffer pH 7.4, 37° C., fluorescence in supernatant. The text has this: FIGS. 2A-2B. Simulated drug releasing profile from PEG-PLGA double emulsions-based hairy microparticles using two different fluorescent molecules. (FIG. 2A) Loaded Alexa Fluor® 647 (1025.2 g/mol) and (FIG. 2B) GFP (27 kDa) were released depending on the time and detected in supernatant.
To test drug encapsulating and releasing properties, we use two different sizes of fluorescent molecules (Alexa Fluor® 647, 1025.2 g/mol and GFP, 27 kDa). We load these molecules into most inner phase and generate double emulsions through two-step sequential emulsification. After fully drying of DCM, hairy microparticles are collected and washed 3 times by centrifugation at 3000 rcf for 1 min with deionized water. To determine the release profile, we place a sample in 0.1 M PBS buffer (pH=7.4, 5 ml total) at 37° C. and monitor the release of the fluorescent molecules. The fluorescent intensity in supernatant are measured using a BioTek plate reader. FIGS. 2A-2B show the release profile of both Alexa Fluor 647 and GFP. Based on the fluorescent intensity of end point, about 22-26% of Alexa Fluor 647 and 19-35% of GFP are released (compared to the amount injected into the emulsions) from microcapsules.

On to Alexa Fluor 647, for which the “released from microcapsules, compared to the amount injected into the emulsions, based on fluorescent intensity of end point” value was 22-26%.
